Data from patent US9200003B2, “Crystalline forms of 1-(5′-(5-(3,5-dichloro-4-fluorophenyl)-5-(trifluoro-methyl)-4,5-dihydroisoxazol-3-yl)-3′H-spiro[azetidine-3,1′-isobenzofuran]-1-yl)-2-(methylsulfonyl) ethanone” (Zoetis Services LLC, priority 2012, dated 2015).
In brackets after ≈: the same amount, converted by molar mass. Where two headings read alike, the source gives them in different places.

Assay: Solubility of the solid-state forms in organic solvents
Format: physicochemical
Conditions: for solubility: organic solvent or mixture

Row | Structure (SMILES) | solubility in acetone (acetone, room temperature (approximately 22° C.)) | solubility in methyl t-butyl ether (methyl t-butyl ether) | solubility (methyl t-butyl ether, read-out: solubility in methyl t-butyl ether) | solubility (acetone, room temperature (approximately 22° C.), read-out: solubility in acetone)
1 | CS(=O)(=O)CC(=O)N1CC2(C1)OCc1cc(C3=NOC(c4cc(Cl)c(F)c(Cl)c4)(C(F)(F)F)C3)ccc12 (racemic) [crystal racemate, (S/R)-1-(5′-(5-(3,5-dichloro-4-fluorophenyl)-5-(trifluoromethyl)-4,5-dihydroisoxazol-3-yl)-3′H-spiro[azetidine-3,1′-isobenzofuran]-1-yl)-2-(methylsulfonyl)ethanone] | less than 10 mg/mL | < 1 mg/mL | – | –
2 | CS(=O)(=O)CC(=O)N1CC2(C1)OCc1cc(C3=NO[C@@](c4cc(Cl)c(F)c(Cl)c4)(C(F)(F)F)C3)ccc12 [Form A, (S)-1-(5′-(5-(3,5-dichloro-4-fluorophenyl)-5-(trifluoromethyl)-4,5-dihydroisoxazol-3-yl)-3′H-spiro[azetidine-3,1′-isobenzofuran]-1-yl)-2-(methylsulfonyl)ethanone] | – | – | 11 mg/mL (≈ 18.9 mM) | > 300 mg/mL
